Source: ChEMBL document CHEMBL6120962, “New Mitochondria-Targeted Fisetin Derivative Compromises Mitophagy and Limits Survival of Drug-Induced Senescent Breast Cancer Cells” (J Med Chem, 2024)
Calls of active or inactive are those of the source. The rule behind the calls is not given here.

What was measured:
HCC1428 [1] = experiment: Induction of mitochondrial dysfunction in tamoxifen-induced senescent human HCC1428 cells assessed as decrease in spare respiratory capacity at 5 uM incubated for 6 hrs by real-time analysis; format: functional, cell-based
HCC1428 [2] = experiment: Induction of mitochondrial dysfunction in tamoxifen-induced senescent human HCC1428 cells assessed as decrease in ATP production at 5 uM incubated for 6 hrs by real-time analysis; format: functional, cell-based
Mitochondrial membrane [3] = experiment: Induction of mitochondrial membrane potential depolarization in human HCC1428 cells at 1 to 5 uM incubated for 24 hrs by 7-AAD staining based flow cytometric analysis; format: cell membranes; settings: dose 1-5 µM
HCC1500 [4] = experiment: Induction of apoptosis in tamoxifen-induced senescent human HCC1500 cells assessed as phosphatidylserine externalization at 1 to 5 uM incubated for 24 hrs by Annexin V-FITC staining based flow cytometric analysis; format: functional, cell-based; settings: dose 1-5 µM
MCF-10F [5] = experiment: Induction of mitochondrial dysfunction in tamoxifen-induced senescent human MCF-10F cells assessed as decrease in spare respiratory capacity at 5 uM incubated for 6 hrs by real-time analysis; format: functional, cell-based
ZR-75-30 [6] = experiment: Induction of apoptosis in human ZR-75-30 cells assessed as phosphatidylserine externalization at 1 to 5 uM incubated for 24 hrs by Annexin V-FITC staining based flow cytometric analysis; format: functional, cell-based; settings: dose 1-5 µM
MCF-10F [7] = experiment: Induction of mitochondrial dysfunction in tamoxifen-induced senescent human MCF-10F cells assessed as decrease in ATP production at 5 uM incubated for 6 hrs by real-time analysis; format: functional, cell-based
Mitochondrial membrane [8] = experiment: Induction of mitochondrial membrane potential depolarization in human CAMA-1 cells at 1 to 5 uM incubated for 24 hrs by 7-AAD staining based flow cytometric analysis; format: cell membranes; settings: dose 1-5 µM
MCF7 = experiment: Antitumor activity against ER-positive human MCF7 cells xenografted in Danio rerio embryo assessed as decrease in tumor size at 1 to 5 uM administered for 48 hrs by imaging analysis; format: functional, cell-based; settings: dose 1-5 µM
HCC1428 [9] = experiment: Induction of autophagy in tamoxifen-induced senescent human HCC1428 cells assessed as increase in VPS34 level at 1 to 5 uM by immunostaining based imaging cytometric analysis; format: functional, cell-based; settings: dose 1-5 µM
HCC1428 [10] = experiment: Induction of alternative mitophagy in tamoxifen-induced senescent human HCC1428 cells assessed as increase in Rab9 level at 1 to 5 uM by immunostaining based imaging cytometric analysis; format: functional, cell-based; settings: dose 1-5 µM
[11] = target: Apoptosis regulator Bcl-2 (Homo sapiens) (UniProt P10415); experiment: Binding affinity to recombinant human Bcl-2 assessed as interaction by measuring decrease in chemiluminescence signal at 0.01 to 5 uM incubated overnight by dot-blot analysis; settings: dose 0.01-5 µM
HCC1428 [12] = experiment: Induction of apoptosis in human HCC1428 cells assessed as phosphatidylserine externalization at 1 to 5 uM incubated for 24 hrs by Annexin V-FITC staining based flow cytometric analysis; format: functional, cell-based; settings: dose 1-5 µM
ZR-75-30 [13] = experiment: Induction of apoptosis in tamoxifen-induced senescent human ZR-75-30 cells assessed as phosphatidylserine externalization at 1 to 5 uM incubated for 24 hrs by Annexin V-FITC staining based flow cytometric analysis; format: functional, cell-based; settings: dose 1-5 µM
HCC1428 [14] = experiment: Induction of apoptosis in tamoxifen-induced senescent human HCC1428 cells assessed as decrease in AKT level at 5 uM incubated for 24 hrs by Western blotting analysis; format: functional, cell-based
HCC1428 [15] = experiment: Induction of mitochondrial dysfunction in tamoxifen-induced senescent human HCC1428 cells assessed as increase in proton leak at 5 uM incubated for 6 hrs by real-time analysis; format: functional, cell-based
HCC1428 [16] = experiment: Upregulation of BECN1 level in tamoxifen-induced senescent human HCC1428 cells at 1 to 5 uM by immunostaining based imaging cytometric analysis; format: functional, cell-based; settings: dose 1-5 µM
HCC1428 [17] = experiment: Induction of mitochondrial dysfunction in tamoxifen-induced senescent human HCC1428 cells assessed as decrease in coupling efficiency respiration at 5 uM incubated for 6 hrs by real-time analysis; format: functional, cell-based
HCC1428 [18] = experiment: Induction of apoptosis in tamoxifen-induced senescent human HCC1428 cells assessed as phosphatidylserine externalization at 1 to 5 uM incubated for 24 hrs by Annexin V-FITC staining based flow cytometric analysis; format: functional, cell-based; settings: dose 1-5 µM
MCF-10F [19] = experiment: Induction of mitochondrial dysfunction in tamoxifen-induced senescent human MCF-10F cells assessed as decrease in coupling efficiency at 5 uM incubated for 6 hrs by real-time analysis; format: functional, cell-based
[20] = target: RAC-alpha serine/threonine-protein kinase (Homo sapiens) (UniProt P31749); experiment: Binding affinity to recombinant human AKT (14 to 276 residues) assessed as interaction by measuring decrease in chemiluminescence signal at 0.01 to 5 uM incubated overnight by dot-blot analysis; settings: dose 0.01-5 µM
BJ [21] = experiment: Cytotoxicity against human BJ cells assessed as effect on metabolic activity at 10 uM incubated for 24 hrs by MTT assay; format: toxicity, cell-based
HCC1428 [22] = experiment: Induction of autophagosome formation in tamoxifen-induced senescent human HCC1428 cells assessed as increase in ubiquitin level at 1 to 5 uM by immunostaining based imaging cytometric analysis; format: functional, cell-based; settings: dose 1-5 µM
Mitochondrial membrane [23] = experiment: Induction of mitochondrial membrane potential depolarization in human ZR-75-30 cells at 1 to 5 uM incubated for 24 hrs by 7-AAD staining based flow cytometric analysis; format: cell membranes; settings: dose 1-5 µM
HCC1428 [24] = experiment: Induction of autophagosome formation in tamoxifen-induced senescent human HCC1428 cells assessed as increase in LC3B level at 1 to 5 uM by immunostaining based imaging cytometric analysis; format: functional, cell-based; settings: dose 1-5 µM
CAMA-1 [25] = experiment: Induction of apoptosis in human CAMA-1 cells assessed as phosphatidylserine externalization at 1 to 5 uM incubated for 24 hrs by Annexin V-FITC staining based flow cytometric analysis; format: functional, cell-based; settings: dose 1-5 µM
T47D = experiment: Antitumor activity against ER-positive human T47D cells xenografted in Danio rerio embryo assessed as decrease in tumor size at 1 to 5 uM administered for 48 hrs by imaging analysis; format: functional, cell-based; settings: dose 1-5 µM
HCC1428 [26] = experiment: Induction of autophagy in tamoxifen-induced senescent human HCC1428 cells assessed as increase in ULK1 level at 1 to 5 uM by immunostaining based imaging cytometric analysis; format: functional, cell-based; settings: dose 1-5 µM
MCF-10F [27] = experiment: Induction of mitochondrial dysfunction in tamoxifen-induced senescent human MCF-10F cells assessed as decrease in maximal respiration at 5 uM incubated for 6 hrs by real-time analysis; format: functional, cell-based
Mitochondrial membrane [28] = experiment: Induction of mitochondrial membrane potential depolarization in human HCC1500 cells at 1 to 5 uM incubated for 24 hrs by 7-AAD staining based flow cytometric analysis; format: cell membranes; settings: dose 1-5 µM
HCC1500 [29] = experiment: Induction of apoptosis in human HCC1500 cells assessed as phosphatidylserine externalization at 1 to 5 uM incubated for 24 hrs by Annexin V-FITC staining based flow cytometric analysis; format: functional, cell-based; settings: dose 1-5 µM
HCC1428 [30] = experiment: Induction of ubiquitin-independent mitophagy in tamoxifen-induced senescent human HCC1428 cells assessed as increase in BNIP3 level at 1 to 5 uM by immunostaining based imaging cytometric analysis; format: functional, cell-based; settings: dose 1-5 µM
CAMA-1 [31] = experiment: Induction of apoptosis in tamoxifen-induced senescent human CAMA-1 cells assessed as phosphatidylserine externalization at 1 to 5 uM incubated for 24 hrs by Annexin V-FITC staining based flow cytometric analysis; format: functional, cell-based; settings: dose 1-5 µM
HCC1428 [32] = experiment: Induction of ubiquitin-dependent mitophagy in tamoxifen-induced senescent human HCC1428 cells assessed as increase in parkin level at 1 to 5 uM by immunostaining based imaging cytometric analysis; format: functional, cell-based; settings: dose 1-5 µM
HCC1428 [33] = experiment: Induction of ubiquitin-dependent mitophagy in tamoxifen-induced senescent human HCC1428 cells assessed as increase in PINK1 level at 1 to 5 uM by immunostaining based imaging cytometric analysis; format: functional, cell-based; settings: dose 1-5 µM
HCC1428 [34] = experiment: Induction of mitochondrial dysfunction in tamoxifen-induced senescent human HCC1428 cells assessed as decrease in maximal respiration at 5 uM incubated for 6 hrs by real-time analysis; format: functional, cell-based
MCF-10F [35] = experiment: Induction of mitochondrial dysfunction in tamoxifen-induced senescent human MCF-10F cells assessed as increase in proton leak at 5 uM incubated for 6 hrs by real-time analysis; format: functional, cell-based
HCC1428 [36] = experiment: Anticancer activity against ER-positive human HCC1428 cells assessed as effect on metabolic activity at 10 uM incubated for 24 hrs by MTT assay; format: functional, cell-based
HCC1428 [37] = experiment: Induction of mitochondrial dysfunction in human HCC1428 cells assessed as decrease in ATP production at 5 uM incubated for 6 hrs by real time analysis; format: functional, cell-based
[38] = Cytotoxicity against human MCF-10F cells assessed as effect on metabolic activity at 1 to 10 uM incubated for 24 hrs by MTT assay; format: toxicity, cell-based; settings: dose 1-10 µM
HCC1428 [39] = experiment: Induction of mitochondrial dysfunction in human HCC1428 cells assessed as decrease in coupling efficiency at 5 uM incubated for 6 hrs by real time analysis; format: functional, cell-based
HCC1428 [40] = experiment: Induction of mitochondrial dysfunction in human HCC1428 cells assessed as increase in proton leak at 5 uM incubated for 6 hrs by real time analysis; format: functional, cell-based
HCC1428 [41] = experiment: Induction of mitochondrial dysfunction in human HCC1428 cells assessed as decrease in spare respiratory capacity at 5 uM incubated for 6 hrs by real time analysis; format: functional, cell-based
ZR-75-30 [42] = experiment: Anticancer activity against ER-positive human ZR-75-30 cells assessed as effect on metabolic activity upto 10 uM incubated for 24 hrs by MTT assay; format: functional, cell-based
HCC1500 [43] = experiment: Anticancer activity against ER-positive human HCC1500 cells assessed as effect on metabolic activity upto 10 uM incubated for 24 hrs by MTT assay; format: functional, cell-based
HCC1428 [44] = experiment: Anticancer activity against ER-positive human HCC1428 cells assessed as effect on metabolic activity upto 10 uM incubated for 24 hrs by MTT assay; format: functional, cell-based
BJ [45] = experiment: Cytotoxicity against human BJ cells assessed as effect on metabolic activity at 1 to 10 uM incubated for 24 hrs by MTT assay; format: toxicity, cell-based; settings: dose 1-10 µM
HCC1428 [46] = experiment: Induction of mitochondrial dysfunction in human HCC1428 cells assessed as decrease in maximal respiration at 5 uM incubated for 6 hrs by real time analysis; format: functional, cell-based
CAMA-1 [47] = experiment: Anticancer activity against ER-positive human CAMA-1 cells assessed as effect on metabolic activity upto 10 uM incubated for 24 hrs by MTT assay; format: functional, cell-based

Chain of Apoptosis regulator Bcl-2 (Homo sapiens) (P10415 whole entry): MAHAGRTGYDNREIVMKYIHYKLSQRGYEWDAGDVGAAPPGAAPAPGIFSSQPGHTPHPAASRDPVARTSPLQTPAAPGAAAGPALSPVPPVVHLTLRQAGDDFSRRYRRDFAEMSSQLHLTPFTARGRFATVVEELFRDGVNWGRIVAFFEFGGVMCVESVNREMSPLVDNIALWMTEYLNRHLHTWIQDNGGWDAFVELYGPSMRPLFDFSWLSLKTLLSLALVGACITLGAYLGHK
Chain of RAC-alpha serine/threonine-protein kinase (Homo sapiens) (P31749 whole entry, the tested form may be a part): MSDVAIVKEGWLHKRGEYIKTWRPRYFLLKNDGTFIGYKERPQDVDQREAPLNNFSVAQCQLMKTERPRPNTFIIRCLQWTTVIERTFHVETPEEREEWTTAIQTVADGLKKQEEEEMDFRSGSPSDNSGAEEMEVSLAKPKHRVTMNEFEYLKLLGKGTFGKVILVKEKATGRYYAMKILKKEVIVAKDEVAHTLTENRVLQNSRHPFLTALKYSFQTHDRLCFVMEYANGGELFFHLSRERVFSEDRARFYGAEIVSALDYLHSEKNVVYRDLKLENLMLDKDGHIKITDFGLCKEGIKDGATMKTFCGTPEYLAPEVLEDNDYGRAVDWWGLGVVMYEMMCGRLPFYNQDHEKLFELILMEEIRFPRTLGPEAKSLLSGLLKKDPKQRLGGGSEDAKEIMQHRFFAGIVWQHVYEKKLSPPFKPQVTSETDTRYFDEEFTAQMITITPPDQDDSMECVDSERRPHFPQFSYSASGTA

Structure (SMILES): O=c1c(O)c(-c2ccc(O)c(O)c2)oc2cc(O)ccc12 [FISETIN]
- Activity (HCC1428 [1]): inactive
- Activity (HCC1428 [2]): inactive
- Activity (Mitochondrial membrane [3]): inactive
- Activity (HCC1500 [4]): inactive
- Activity (MCF-10F [5]): inactive
- Activity (ZR-75-30 [6]): inactive
- Activity (MCF-10F [7]): inactive
- Activity (Mitochondrial membrane [8]): inactive
- Activity (MCF7): inactive
- Activity (HCC1428 [9]): inactive
- Activity (HCC1428 [10]): inactive
- Activity [11]: Active
- Activity (HCC1428 [12]): inactive
- Activity (ZR-75-30 [13]): inactive
- Activity (HCC1428 [14]): Active
- Activity (HCC1428 [15]): inactive
- Activity (HCC1428 [16]): inactive
- Activity (HCC1428 [17]): inactive
- Activity (HCC1428 [18]): inactive
- Activity (MCF-10F [19]): inactive
- Activity [20]: Active
- Activity (BJ [21]): Toxic
- Activity (HCC1428 [22]): inactive
- Activity (Mitochondrial membrane [23]): inactive
- Activity (HCC1428 [24]): inactive
- Activity (CAMA-1 [25]): inactive
- Activity (T47D): inactive
- Activity (HCC1428 [26]): inactive
- Activity (MCF-10F [27]): inactive
- Activity (Mitochondrial membrane [28]): inactive
- Activity (HCC1500 [29]): inactive
- Activity (HCC1428 [30]): inactive
- Activity (CAMA-1 [31]): inactive
- Activity (HCC1428 [32]): inactive
- Activity (HCC1428 [33]): inactive
- Activity (HCC1428 [34]): inactive
- Activity (MCF-10F [35]): inactive
- Activity (HCC1428 [36]): Active

Structure (SMILES): CC(=O)Oc1c(-c2ccc3c(c2)OC(c2ccccc2)(c2ccccc2)O3)oc2cc(OCCCC[P+](c3ccccc3)(c3ccccc3)c3ccccc3)ccc2c1=O.[I-]
- Activity (HCC1428 [37]): Active
- Activity [38]: Non-toxic
- Activity (HCC1428 [39]): Active
- Activity (HCC1428 [40]): Active
- Activity (HCC1428 [41]): Active
- Activity (ZR-75-30 [42]): Active
- Activity [11]: Active
- Activity (HCC1500 [43]): Active
- Activity [20]: Active
- Activity (HCC1428 [44]): Active
- Activity (BJ [45]): Non-toxic
- Activity (HCC1428 [46]): Active
- Activity (CAMA-1 [47]): Active

Structure (SMILES): O=c1c(O)c(-c2ccc3c(c2)OC(c2ccccc2)(c2ccccc2)O3)oc2cc(O)ccc12
- Activity (HCC1428 [37]): Active; Slight Effect Observed
- Activity (HCC1428 [39]): Active; Slight Effect Observed
- Activity (HCC1428 [40]): Active; Slight Effect Observed
- Activity (HCC1428 [41]): Active; Slight Effect Observed
- Activity (MCF7): inactive
- Activity [11]: Active
- Activity [20]: Active
- Activity (T47D): inactive
- Activity (HCC1428 [46]): Active; Slight Effect Observed
